Measurements reported in patent US8999970B2, “Administration of an anti-obesity compound to individuals with renal impairment” (Arena Pharmaceuticals, Inc., priority 2010, dated 2015).

Key:
[1] = Toxicity studies in rats (determination of NOAEL); assay type: in vivo; details: for Exposure multiple relative to human exposure at 10 mg BID: rats 5 mg/kg/day (NOAEL); for Exposure multiple of human exposure at 10 mg BID: rats 50 mg/kg/day for 6 months
Protocol: In rats, a single 1000 mg/kg dose caused death. […] The highest dose tested in 28-day studies, 50 mg/kg/day, was associated with increased serum lipids, centrilobular hepatocellular hypertrophy, splenic extramedullary hematopoiesis, increased pigmented macrophages, and reticulocytosis, and increased kidney weights, with minimal renal tubular epithelial hyperplasia in males only. A 13-week study and a 6-month study gave similar findings except there was no renal tubular epithelial changes and increases in kidney weights were limited to the 3-month study; the NOAEL was 5 mg/kg/day, which produced exposure multiples of 1.2 and 2.8 (males and females) relative to human exposure at a dose of 10 mg BID.
In rats but not mice, modest increases in kidney weights were reported at high dose (≧50 mg/kg) in the 10-day, 28-day and 3-month studies, but were without microscopic correlate except in the 28-day study, in which minimal renal tubular epithelial hypertrophy was reported in male rats. In the one year toxicology study in monkeys, minimal to moderate focal tubular epithelial degeneration and/or regeneration were observed. The potential clinical relevance of this finding was evaluated in two ways. First, two pathologists with expertise in human renal pathology (Helmut Rennke, M.D. and Stephen Bonsib, M.D.) independently reviewed all monkey kidney slides from the 1-year study in a blinded manner. Both reported the findings to be mild and focal, clinically unimportant, without dose relationship, and more likely related to aging, infection, or inflammation than to study drug. Secondly, renal function was monitored in clinical trials not only by measuring creatinine and BUN, but also by examining urine sediment and by calculating creatinine clearance. The urine sediment data are of limited value due to the preponderance of “dirty” urine specimens contaminated with epithelial cells and other external debris. Neither BUN nor creatinine was affected by lorcaserin. Creatinine clearance, which was calculated using both actual body weight and the preferred ideal body weight method, was also not affected by lorcaserin use of up to 2 years.

[2] = Toxicity studies in monkeys (single dose, 28-day, 13-week, 12-month); assay type: in vivo, cynomolgus monkeys; details: for Exposure multiple relative to human exposure at 10 mg BID: monkeys 100 mg/kg/day
Protocol: In cynomolgus monkeys, dose-limiting emesis occurred at 300 mg/kg single dose. In repeat
In a 28-day repeat dose study, one male given 100 mg/kg/day experienced a seizure. […] Reduced weight gain and food consumption occurred in 28-day, 13-week and 12-month studies at doses ≧10 mg/kg/day. Cholesterol, LDL and HDL decreased at ≧10 mg/kg/day in the 12-month study. […] The NOAEL was considered to be 2 mg/kg/day.
This animal continued treatment on Day 2 and no further seizures were observed throughout the duration of the study. […] A reduction in serum lipids (cholesterol, HDL, and LDL) was measured in both sexes treated with ≧10 mg/kg doses of lorcaserin. Reductions in total cholesterol and LDL occurred in some animals treated with 2 mg/kg as well. There was a dose-independent reduction in the mean triglyceride concentration in both sexes at ≧2 mg/kg. Mild increases in ALT occurred primarily in females at all dose levels and in one control animal. White blood cells in the urine of some females dosed at ≧50 mg/kg/day were thought to be associated with renal tubular changes noted histologically in three out of five cases.
There were no lorcaserin-related gross findings. Histologic changes were identified in the kidneys, ovaries, and possibly in the liver. Changes in the kidney consisted of focal or multifocal tubular epithelial cell degeneration, regeneration, and cellular casts. […] The histologic renal changes attributed to lorcaserin were not associated with changes in serum chemistry or kidney function. A review of the renal findings was conducted by two expert human renal pathologists, each of whom independently read blinded slides and reached the same conclusion: the administration of lorcaserin to monkeys for 12 months was not associated with drug-related renal pathology. […] One of these pathologists attributed the potential finding of regeneration to a staining artifact resulting in a bluish cytoplasmic discoloration. […] This change was reversible after a one month drug-free interval. […] The lipidosis was not present in animals sacrificed after a one month drug-free interval. No changes were identified by the study pathologist or the peer review pathologist in the heart, heart valves, pulmonary vessels or lungs of animals given lorcaserin compared to controls.
Changes in the kidney consisted of focal tubular epithelial cell degeneration, regeneration, and cellular casts. […] These findings were not observed in previous monkey studies, and no similar kidney findings occurred in rodents. Renal findings were determined to be unrelated to lorcaserin treatment by two independent human renal pathologists after reviewing blinded slide sets. In their independent opinions, the findings were not dose related and were consistent with age and focal inflammation or infection. One pathologist attributed the findings of regeneration to a staining artifact, resulting in a bluish cytoplasmic discoloration. If tubular renal epithelial regeneration were artifactual, renal findings of the conducting laboratory would be limited to the high dose. At 2, 10, 50, and 125 mg/kg, the margins were 1.0 and 0.6, 8 and 5, 44 and 31, and 51 and 51 times human exposure at the MRD for males and females, respectively. Renal findings in rodents and monkeys were of uncertain relationship to lorcaserin. Substantial margins over human exposure exist for all renal finding in rodents, and in monkeys according to two expert human renal pathologists. Even assuming the renal findings in monkeys are drug related, the principal findings were focal or multifocal, minimal to mild (1 instance of moderate regeneration at the high dose) renal tubular epithelial regeneration and degeneration that would have had to have been much more severe and diffuse to be of clinical relevance. Based upon adverse events, clinical chemistry and urinalyses in an extensive phase 2 and phase 3 program, there is no evidence of a lorcaserin effect on the kidney in humans.

For C[C@H]1CNCCc2ccc(Cl)cc21 [Lorcaserin, (R)-8-chloro-1-methyl-2,3,4,5-tetrahydro-1H-3-benzazepine], the NOAEL ([1]; both sexes, rat, in vivo, rats, 13-week and 6-month studies) was 5 mg/kg/day, the “Single dose that caused death” value ([1]; rats) was 1000 mg/kg and the “Exposure multiple relative to human exposure at 10 mg BID” value ([1]; females) was 2.8. For the same compound, the “Exposure multiple relative to human exposure at 10 mg BID” value ([1]; males) was 1.2, the “Exposure multiple of human exposure at 10 mg BID” value ([1]; females) was 34 times and the “Exposure multiple of human exposure at 10 mg BID” value ([1]; males) was 22 times. The “Doses with no mortality” value ([1]; rats, 10-day repeat dose studies) was no more than 150 mg/kg/day, the “Doses with modest increases in kidney weights” value ([1]; rats, 10-day, 28-day and 3-month studies) was no less than 50 mg/kg and the NOAEL at 12 months ([2]; both sexes, cynomolgus monkey, in vivo, oral, monkeys, 12-month study) was 2 mg/kg/day. For the same compound, the MTD ([2]; cynomolgus monkey, in vivo, oral, monkeys, repeat dose studies, read-out: Maximum tolerated dose) was 100 to 125 mg/kg/day, the “Single dose with dose-limiting emesis” value ([2]; cynomolgus monkeys) was 300 mg/kg and the “Margin, times human exposure at the MRD” value ([2]; monkeys 2 mg/kg, females) was 0.6 times. The “Margin, times human exposure at the MRD” value ([2]; monkeys 2 mg/kg, males) was 1.0 times, the “Margin, times human exposure at the MRD” value ([2]; monkeys 10 mg/kg, females) was 5 times and the “Margin, times human exposure at the MRD” value ([2]; monkeys 10 mg/kg, males) was 8 times. The “Margin, times human exposure at the MRD” value ([2]; monkeys 50 mg/kg, females) was 31 times, the “Margin, times human exposure at the MRD” value ([2]; monkeys 50 mg/kg, males) was 44 times and the “Exposure multiple relative to human exposure at 10 mg BID” value ([2]; females) was 68. The “Exposure multiple relative to human exposure at 10 mg BID” value ([2]; males) was 74, the “Margin, times human exposure at the MRD” value ([2]; monkeys 125 mg/kg, females) was 51 times and the “Margin, times human exposure at the MRD” value ([2]; monkeys 125 mg/kg, males) was 51 times. The “Animals with focal renal tubular epithelial cell degeneration and/or regeneration (minimal to mild regeneration in renal cortex)” value ([2]; monkeys 12 months, 2 mg/kg) was 1/8, the “Females with cystic ovarian follicles” value ([2]; monkeys 12 months, 2 mg/kg) was 0/4 and the “Animals with hepatic lipidosis” value ([2]; monkeys 12 months, 2 mg/kg/day) was 4/8. For the same compound, the “Animals with focal renal tubular epithelial cell degeneration and/or regeneration (minimal to mild regeneration in renal cortex)” value ([2]; monkeys 12 months, 10 mg/kg) was 2/8, the “Females with cystic ovarian follicles” value ([2]; monkeys 12 months, 10 mg/kg) was 1/4 and the “Animals with hepatic lipidosis” value ([2]; monkeys 12 months, 10 mg/kg/day) was 2/8. The “Animals with focal renal tubular epithelial cell degeneration and/or regeneration (minimal to mild regeneration in renal cortex)” value ([2]; monkeys 12 months, 50 mg/kg) was 3/8, the “Females with cystic ovarian follicles” value ([2]; monkeys 12 months, 50 mg/kg) was 1/4 and the “Males with cellular casts” value ([2]; monkeys 12 months, 50 mg/kg) was 1/4. For the same compound, the “Animals with hepatic lipidosis” value ([2]; monkeys 12 months, 50 mg/kg/day) was 3/8, the “Animals with cellular casts” value ([2]; monkeys 12 months, 125 mg/kg) was 4/4 and the “Animals with focal renal tubular epithelial cell degeneration and/or regeneration (minimal to mild regeneration in renal cortex)” value ([2]; monkeys 12 months, 125 mg/kg) was 6/8. The “Females with cellular casts” value ([2]; monkeys 12 months, 125 mg/kg) was 2/4, the “Females with cystic ovarian follicles” value ([2]; monkeys 12 months, 125 mg/kg) was 3/4 and the “Males with cellular casts” value ([2]; monkeys 12 months, 125 mg/kg) was 1/4. The “Animals with regeneration (incl. moderate)” value ([2]; monkeys 12 months, 125 mg/kg group) was 7/8, the “Animals with hepatic lipidosis” value ([2]; monkeys 12 months, 250 mg/kg/day) was 4/8 and the “Doses with dose-dependent decrease in activity and hunched appearance” value ([2]; monkeys 12 months, both sexes) was no less than 10 mg/kg. The “Females with moderate epithelial regeneration” value ([2]; monkeys 12 months, high dose) was 1/4, the “Animals with minimal to mild tubular epithelial degeneration” value ([2]; monkeys 12 months, high dose group (125 mg/kg)) was 6 of 8 and the “Doses at which cholesterol, LDL and HDL decreased” value ([2]; monkeys, 12-month study) was no less than 10 mg/kg/day. For the same compound, the Lorcaserin-related deaths ([2]; monkeys, 12-month study) was “no lorcaserin-related deaths” and the “Doses with reduced weight gain and food consumption” value ([2]; monkeys, 28-day, 13-week and 12-month studies) was no less than 10 mg/kg/day.
